Reference: patent US20240360178A1, “MACROCYCLIC IMMUNOMODULATORS” (Bristol-Myers Squibb Company, priority 2021, published 2024)
Positions of bridges follow the written chain, without caps; N, C: chain ends. Non-standard residues stand in square brackets, D forms with d. Residues, ends and D or L forms follow the SMILES beside them. Bip = N[C@@H](Cc1ccc(-c2ccccc2)cc1)C(=O)O; Phe(2-Cl) = N[C@@H](Cc1ccccc1Cl)C(=O)O; NMeA = CN[C@@H](C)C(=O)O; Sar = CNCC(=O)O

Target: T1, human PD-1 (Jurkat-PD-1 cells) / PE-labeled human PD-L1-Ig (Homo sapiens, UniProt Q15116)
T1 construct: expressed in transfected cells; host or cells: Jurkat cell line over-expressing human PD-1
Assay: Jurkat-PD-1 Cell Binding High-Content Screening Assay (CBA); Jurkat hPD1-PDL1 assay
Conditions: Jurkat cell line over-expressing human PD-1; PE-labeled PD-L1-Ig 20 nM final; compound incubated 2 hours at 37° C.; read-out: Jurkat HPD1-PDL1 IC50
Method in brief: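 Jurkat cells over-expressing human PD-1, seeded in DMEM with 10% fetal calf serum, were preincubated with compound for 2 hours at 37° C. PE-labeled human PD-L1-Ig was then added at 20 nM final, and cell-bound fluorescence was read by high-content imaging.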

T1 sequence (Q15116 25-288): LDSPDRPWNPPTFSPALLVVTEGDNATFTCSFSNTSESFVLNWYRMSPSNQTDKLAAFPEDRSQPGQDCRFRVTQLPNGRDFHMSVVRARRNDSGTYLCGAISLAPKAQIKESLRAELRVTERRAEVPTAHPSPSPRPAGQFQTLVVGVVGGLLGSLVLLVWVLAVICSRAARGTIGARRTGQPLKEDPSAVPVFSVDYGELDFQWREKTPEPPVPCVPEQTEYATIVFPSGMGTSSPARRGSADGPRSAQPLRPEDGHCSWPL

## CC(C)C[C@@H]1NC(=O)[C@H](Cc2ccccc2Cl)NC(=O)[C@H](CC(=O)O)NC(=O)[C@H](Cc2ccc(O)cc2)NC(=O)[C@H](Cc2ccccc2)NC(=O)CSC[C@@H](C(=O)N[C@@H](C)C(N)=O)NC(=O)[C@H](CO)NC(=O)[C@H](C(C)C)NC(=O)[C@H](CC(C)C)NC(=O)[C@H](CC(N)=O)NC(=O)CN(C)C(=O)[C@H](C)N(C)C(=O)[C@H](C(C)C)NC(=O)[C@H](Cc2ccc(-c3ccccc3)cc2)NC1=O [Example 1170] ({CH2CO}-FYD[Phe(2-Cl)]L[Bip]V[NMeA][Sar]NLVSCA-NH2; thioether N-14)
  IC50: 0.94 µM
